Results taken from ChEMBL document CHEMBL3102716, “High-throughput virtual screening identifies novel N'-(1-phenylethylidene)-benzohydrazides as potent, specific, and reversible LSD1 inhibitors” (J Med Chem, 2013).
Calls of active or inactive are those of the source. No cut-off for these calls is given here.

Experiments:
[1] = system: T47D; test: cells; details: Homo sapiens, 96 h
[2] = molecular target: T1, Lysine-specific histone demethylase 1A (Homo sapiens, UniProt O60341)
Description: Inhibition of LSD1 (unknown origin) using dimethyl K4 peptide as substrate assessed as resorufin level by spectrophotometric analysis

[3] = Inhibition of D-lactate dehydrogenase (unknown origin); design: species or system Homo sapiens
[4] = molecular target: T1, Lysine-specific histone demethylase 1A; test: Binding affinity to recombinant full-length His6-tagged LSD1 (unknown origin) assessed as Boltzmann melting temperature at 15 uM after 30 mins by differential scanning fluorimetry
[5] = molecular target: Cytochrome P450 2D6 (Homo sapiens, UniProt P10635); test: Inhibition of CYP2D6 (unknown origin); assay type: ADME
[6] = molecular target: T2, Cytochrome P450 1A2 (Homo sapiens, UniProt P05177); test: Inhibition of CYP1A2 (unknown origin); assay type: ADME
T2 sequence (P05177 whole entry): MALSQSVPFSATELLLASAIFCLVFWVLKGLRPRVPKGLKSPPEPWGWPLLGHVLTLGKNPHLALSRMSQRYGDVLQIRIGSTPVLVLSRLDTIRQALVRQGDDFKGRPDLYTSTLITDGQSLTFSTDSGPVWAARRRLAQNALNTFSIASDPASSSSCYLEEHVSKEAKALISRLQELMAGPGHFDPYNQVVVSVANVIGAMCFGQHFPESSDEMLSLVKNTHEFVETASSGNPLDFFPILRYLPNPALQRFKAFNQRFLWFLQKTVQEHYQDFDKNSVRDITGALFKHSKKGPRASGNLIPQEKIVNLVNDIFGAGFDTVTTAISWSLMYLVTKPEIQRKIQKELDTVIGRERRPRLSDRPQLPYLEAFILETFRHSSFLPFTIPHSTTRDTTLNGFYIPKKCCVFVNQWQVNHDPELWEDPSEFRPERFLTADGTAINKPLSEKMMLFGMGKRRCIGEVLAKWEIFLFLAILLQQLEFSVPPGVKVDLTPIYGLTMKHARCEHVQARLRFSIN

[7] = molecular target: Cytochrome P450 3A4 (Homo sapiens, UniProt P08684); test: Inhibition of CYP3A4 (unknown origin); assay type: ADME
[8] = molecular target: T1, Lysine-specific histone demethylase 1A; test: Binding affinity to recombinant full-length His6-tagged LSD1 (unknown origin) assessed as first derivative melting temperature at 15 uM after 30 mins by differential scanning fluorimetry
[9] = molecular target: T3, Amine oxidase [flavin-containing] B (Homo sapiens, UniProt P27338)
T3 sequence (P27338 whole entry): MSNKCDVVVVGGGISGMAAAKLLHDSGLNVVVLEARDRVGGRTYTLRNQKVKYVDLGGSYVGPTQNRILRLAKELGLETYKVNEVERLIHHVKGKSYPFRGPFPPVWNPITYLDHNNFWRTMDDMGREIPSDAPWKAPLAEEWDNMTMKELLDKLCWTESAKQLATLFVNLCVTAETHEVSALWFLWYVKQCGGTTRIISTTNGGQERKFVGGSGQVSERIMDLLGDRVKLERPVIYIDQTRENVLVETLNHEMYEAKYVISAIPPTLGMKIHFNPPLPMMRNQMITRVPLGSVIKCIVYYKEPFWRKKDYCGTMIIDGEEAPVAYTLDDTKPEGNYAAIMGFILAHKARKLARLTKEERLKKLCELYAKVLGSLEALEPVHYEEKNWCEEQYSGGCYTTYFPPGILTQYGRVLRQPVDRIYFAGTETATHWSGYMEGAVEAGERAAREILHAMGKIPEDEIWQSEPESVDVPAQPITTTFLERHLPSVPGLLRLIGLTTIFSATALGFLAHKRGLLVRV
Description: Inhibition of MAO-B (unknown origin)

[10] = Inhibition of glucose oxidase (unknown origin)
[11] = molecular target: T1, Lysine-specific histone demethylase 1A; test: Non-competitive inhibition of recombinant full-length His6-tagged LSD1 (unknown origin) using dimethylated K4N-terminal H3 peptide as substrate at 100 nM by Michaelis-Menten plot analysis
[12] = molecular target: T1, Lysine-specific histone demethylase 1A; test: Non-competitive inhibition of recombinant full-length His6-tagged LSD1 (unknown origin) using dimethylated K4N-terminal H3 peptide as substrate at 10 nM by Michaelis-Menten plot analysis
[13] = molecular target: T1, Lysine-specific histone demethylase 1A; test: Non-competitive inhibition of recombinant full-length His6-tagged LSD1 (unknown origin) using dimethylated K4N-terminal H3 peptide as substrate at 1 nM by Michaelis-Menten plot analysis
[14] = molecular target: T1, Lysine-specific histone demethylase 1A; test: Non-competitive inhibition of recombinant full-length His6-tagged LSD1 (unknown origin) using dimethylated K4N-terminal H3 peptide as substrate at 30 nM by Michaelis-Menten plot analysis
[15] = molecular target: Cytochrome P450 2C9 (Homo sapiens, UniProt P11712); test: Inhibition of CYP2C9 (unknown origin); assay type: ADME
[16] = molecular target: Voltage-gated inwardly rectifying potassium channel KCNH2 (Homo sapiens, UniProt Q12809); test: Inhibition of human ERG
[17] = molecular target: Cytochrome P450 2C19 (Homo sapiens, UniProt P33261); test: Inhibition of CYP2C19 (unknown origin); assay type: ADME
[18] = molecular target: T1, Lysine-specific histone demethylase 1A; test: Non-competitive inhibition of recombinant full-length His6-tagged LSD1 (unknown origin) using dimethylated K4N-terminal H3 peptide as substrate at 3 nM by Michaelis-Menten plot analysis
[19] = molecular target: T1, Lysine-specific histone demethylase 1A; test: Reversible inhibition of full-length 6His-tagged LSD1 (unknown origin) at 10XIC50 preincubated for 1 hr followed by 100 fold dilution relative to control
[20] = molecular target: T4, Amine oxidase [flavin-containing] A (Homo sapiens, UniProt P21397)
T4 sequence (P21397 whole entry): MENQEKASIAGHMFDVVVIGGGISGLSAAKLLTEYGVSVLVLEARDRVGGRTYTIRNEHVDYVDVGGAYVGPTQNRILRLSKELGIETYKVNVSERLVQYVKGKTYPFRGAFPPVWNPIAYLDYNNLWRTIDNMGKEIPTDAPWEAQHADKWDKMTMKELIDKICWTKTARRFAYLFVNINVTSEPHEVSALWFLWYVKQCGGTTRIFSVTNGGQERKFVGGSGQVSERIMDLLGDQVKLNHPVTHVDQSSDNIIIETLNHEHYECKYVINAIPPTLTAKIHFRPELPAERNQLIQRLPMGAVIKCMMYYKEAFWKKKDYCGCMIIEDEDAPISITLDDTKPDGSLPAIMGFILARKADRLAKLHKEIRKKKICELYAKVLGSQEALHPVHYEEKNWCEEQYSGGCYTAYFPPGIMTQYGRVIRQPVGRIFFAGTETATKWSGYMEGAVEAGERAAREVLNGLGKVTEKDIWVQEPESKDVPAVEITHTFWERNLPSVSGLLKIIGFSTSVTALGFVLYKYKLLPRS
Description: Inhibition of MAO-A (unknown origin)

[21] = molecular target: T1, Lysine-specific histone demethylase 1A; test: Inhibition of human recombinant LSD1 expressed in Escherichia coli BL21(DE3) using H3K4me2 as substrate by chemiluminescence assay
[22] = molecular target: T1, Lysine-specific histone demethylase 1A; test: Inhibition of GST-tagged human recombinant LSD1 using dimethylated H3K4 peptide as substrate by mass spectrometric analysis
[23] = molecular target: T1, Lysine-specific histone demethylase 1A; test: Binding affinity to recombinant full-length His6-tagged LSD1 (unknown origin) assessed as second derivative melting temperature at 15 uM after 30 mins by differential scanning fluorimetry (reference value: […] +/- 1.08 degC)
[24] = molecular target: T1, Lysine-specific histone demethylase 1A; test: Reversible inhibition of full-length 6His-tagged LSD1 (unknown origin) at 10XIC50 after 1 hr relative to control

Cytochrome P450 3A4, sequence (P08684 whole entry): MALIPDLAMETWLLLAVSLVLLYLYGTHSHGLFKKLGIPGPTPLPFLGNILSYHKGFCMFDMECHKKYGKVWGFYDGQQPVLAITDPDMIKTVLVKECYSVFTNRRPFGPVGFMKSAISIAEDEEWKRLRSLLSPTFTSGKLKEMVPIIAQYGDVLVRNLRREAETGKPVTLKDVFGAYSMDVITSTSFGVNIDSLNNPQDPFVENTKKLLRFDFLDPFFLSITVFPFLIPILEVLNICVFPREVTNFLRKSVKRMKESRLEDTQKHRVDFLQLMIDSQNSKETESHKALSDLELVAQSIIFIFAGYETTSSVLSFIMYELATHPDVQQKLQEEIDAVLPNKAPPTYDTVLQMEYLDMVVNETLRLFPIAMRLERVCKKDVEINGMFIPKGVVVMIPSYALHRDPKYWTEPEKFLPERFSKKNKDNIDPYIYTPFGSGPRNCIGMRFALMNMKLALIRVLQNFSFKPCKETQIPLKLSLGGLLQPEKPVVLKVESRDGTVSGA
Voltage-gated inwardly rectifying potassium channel KCNH2, sequence (Q12809 whole entry): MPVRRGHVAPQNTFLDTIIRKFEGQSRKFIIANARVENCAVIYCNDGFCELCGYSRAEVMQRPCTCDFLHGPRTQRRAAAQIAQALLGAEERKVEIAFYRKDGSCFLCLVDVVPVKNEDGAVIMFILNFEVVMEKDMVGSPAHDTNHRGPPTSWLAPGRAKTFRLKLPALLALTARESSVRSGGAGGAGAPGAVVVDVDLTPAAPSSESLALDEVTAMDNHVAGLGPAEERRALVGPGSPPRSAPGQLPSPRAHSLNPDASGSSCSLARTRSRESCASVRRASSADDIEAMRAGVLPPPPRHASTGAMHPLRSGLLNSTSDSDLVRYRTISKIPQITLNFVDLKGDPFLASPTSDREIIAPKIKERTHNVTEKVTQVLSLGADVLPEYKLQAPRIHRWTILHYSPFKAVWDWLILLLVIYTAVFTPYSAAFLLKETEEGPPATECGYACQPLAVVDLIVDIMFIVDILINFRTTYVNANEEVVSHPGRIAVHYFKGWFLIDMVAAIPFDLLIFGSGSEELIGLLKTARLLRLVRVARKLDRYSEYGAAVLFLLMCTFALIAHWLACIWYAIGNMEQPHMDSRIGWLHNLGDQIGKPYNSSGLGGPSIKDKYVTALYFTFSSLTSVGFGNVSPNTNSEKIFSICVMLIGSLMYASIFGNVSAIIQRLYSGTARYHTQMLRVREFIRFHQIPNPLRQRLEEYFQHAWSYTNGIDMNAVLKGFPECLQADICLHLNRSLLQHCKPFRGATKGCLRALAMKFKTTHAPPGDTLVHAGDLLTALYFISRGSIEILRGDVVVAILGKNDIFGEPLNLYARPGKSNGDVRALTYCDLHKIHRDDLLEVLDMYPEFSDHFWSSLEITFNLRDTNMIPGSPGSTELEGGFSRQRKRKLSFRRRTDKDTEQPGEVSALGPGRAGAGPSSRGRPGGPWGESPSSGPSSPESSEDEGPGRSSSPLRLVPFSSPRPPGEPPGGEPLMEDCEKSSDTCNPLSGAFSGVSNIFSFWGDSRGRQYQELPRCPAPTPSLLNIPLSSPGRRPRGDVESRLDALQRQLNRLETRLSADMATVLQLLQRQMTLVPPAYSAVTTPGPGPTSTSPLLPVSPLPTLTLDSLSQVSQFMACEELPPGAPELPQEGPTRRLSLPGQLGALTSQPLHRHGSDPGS
Cytochrome P450 2D6, sequence (P10635 whole entry): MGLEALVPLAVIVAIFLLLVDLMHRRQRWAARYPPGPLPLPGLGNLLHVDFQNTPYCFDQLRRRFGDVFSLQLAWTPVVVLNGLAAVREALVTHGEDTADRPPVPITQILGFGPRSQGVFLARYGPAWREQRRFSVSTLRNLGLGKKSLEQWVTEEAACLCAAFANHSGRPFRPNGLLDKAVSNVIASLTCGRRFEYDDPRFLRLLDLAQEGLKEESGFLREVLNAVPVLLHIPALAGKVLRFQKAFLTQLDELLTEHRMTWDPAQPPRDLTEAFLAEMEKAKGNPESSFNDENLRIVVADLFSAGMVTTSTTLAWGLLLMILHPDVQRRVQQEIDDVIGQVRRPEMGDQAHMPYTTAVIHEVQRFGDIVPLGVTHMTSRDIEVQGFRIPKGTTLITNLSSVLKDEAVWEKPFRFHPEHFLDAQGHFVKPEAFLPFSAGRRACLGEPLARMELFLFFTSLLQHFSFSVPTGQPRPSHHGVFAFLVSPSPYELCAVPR
Cytochrome P450 2C9, sequence (P11712 whole entry): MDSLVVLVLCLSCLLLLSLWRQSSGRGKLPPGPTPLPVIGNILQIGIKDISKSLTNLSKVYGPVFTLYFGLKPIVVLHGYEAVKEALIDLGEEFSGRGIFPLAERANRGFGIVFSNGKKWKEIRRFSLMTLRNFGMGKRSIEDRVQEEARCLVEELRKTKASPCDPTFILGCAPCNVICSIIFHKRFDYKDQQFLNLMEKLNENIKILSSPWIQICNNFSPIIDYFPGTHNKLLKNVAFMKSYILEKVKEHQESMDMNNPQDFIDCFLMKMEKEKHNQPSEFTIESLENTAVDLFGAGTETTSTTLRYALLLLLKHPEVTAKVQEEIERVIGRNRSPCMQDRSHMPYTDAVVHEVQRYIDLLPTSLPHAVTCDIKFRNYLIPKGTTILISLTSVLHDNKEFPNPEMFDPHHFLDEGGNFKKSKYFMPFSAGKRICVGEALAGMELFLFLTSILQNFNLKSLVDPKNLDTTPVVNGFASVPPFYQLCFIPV
Cytochrome P450 2C19, sequence (P33261 whole entry): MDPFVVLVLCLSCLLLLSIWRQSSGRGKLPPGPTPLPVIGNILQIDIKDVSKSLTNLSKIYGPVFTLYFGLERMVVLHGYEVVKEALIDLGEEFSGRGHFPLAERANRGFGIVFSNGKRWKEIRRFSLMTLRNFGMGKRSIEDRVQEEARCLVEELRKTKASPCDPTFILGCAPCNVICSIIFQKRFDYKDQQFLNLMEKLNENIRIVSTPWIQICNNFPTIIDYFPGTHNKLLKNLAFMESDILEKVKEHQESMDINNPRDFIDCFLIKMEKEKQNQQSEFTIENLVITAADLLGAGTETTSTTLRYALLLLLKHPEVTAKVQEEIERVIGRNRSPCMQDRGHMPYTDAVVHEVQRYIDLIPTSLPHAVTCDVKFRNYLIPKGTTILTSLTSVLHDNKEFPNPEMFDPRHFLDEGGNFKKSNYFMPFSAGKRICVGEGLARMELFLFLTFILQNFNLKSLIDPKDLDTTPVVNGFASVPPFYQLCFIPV

Row | Structure (SMILES) | IC50 [1] | IC50 [2] | further results
1 | C/C(=N\NC(=O)c1cccc(S(=O)(=O)N2CCOCC2)c1)c1cccc(Cl)c1F | > 10000 nM | > 3 µM | –
2 | CC/C(=N/NC(=O)c1cccc(S(=O)(=O)N2CCOCC2)c1)c1cc(Cl)ccc1O | 352 nM | > 3 µM | –
3 | COc1ccc(Cl)cc1C(=O)NNC(=O)c1cc(S(=O)(=O)N2CCOCC2)ccc1F | > 10000 nM | > 3 µM | –
4 | CCN(CC)c1cccc(C(=O)N/N=C(\C)c2cccc(C)c2)c1 | > 10000 nM | > 3 µM | –
5 | C/C(=N\NC(=O)c1cccc(S(=O)(=O)N2CCOCC2)c1)c1ccnc(Cl)c1 | > 10000 nM | > 3 µM | –
6 | C/C(=N/NC(=O)c1cccc(S(=O)(=O)N(C)C)c1)c1cc(Cl)ccc1O | 1380 nM | – | –
7 | C/C(=N/NC(=O)c1cncc(Cl)c1)c1cc(Cl)ccc1O | 616 nM | > 3 µM | –
8 | C/C(=N\NC(=O)c1cccc(S(=O)(=O)N2CCOCC2)c1)c1cccc2ccccc12 | > 10000 nM | – | –
9 | C/C(=N\NC(=O)c1cccc(S(=O)(=O)N2CCOCC2)c1)c1cc(Cl)ccc1O | – | – | IC50 [3]: > 10 µM; Tm [4]: 44.6 °C; IC50 [5]: > 10 µM; IC50 [6]: > 10 µM; IC50 [7]: 2610 nM; Tm [8]: 45.4 °C; IC50 [9]: > 300 µM; IC50 [10]: > 10 µM; Ki [11]: 54.7 nM; Ki [12]: 31.9 nM; Ki [13]: 13.5 nM; Ki [14]: 35.2 nM; IC50 [15]: 8.04 µM; IC50 [16]: > 10 µM; IC50 [17]: 9.76 µM; Ki [18]: 35.3 nM; inhibition [19]: 65.7%; IC50 [20]: > 300 µM
10 | O=C(NNC(=O)c1cc(S(=O)(=O)N2CCOCC2)ccc1F)c1cccc(Cl)c1 | > 10000 nM | > 3 µM | –
11 | C/C(=N/NC(=O)c1ccc(Cl)c(Br)c1)c1cc(Cl)ccc1O | 565 nM | > 3 µM | –
12 | CCNCCCNC/C=C\CNCCCNCC | – | – | IC50 [21]: 250 nM
13 | C/C(=N/NC(=O)c1cccc(S(=O)(=O)N2CCOCC2)c1)c1cccnc1 | – | > 3 µM | –
14 | COC(=O)c1cc(CN2CCN(C(=N)N)CC2)cc(C(=O)N2CCN(C(=O)c3ccc(C=N)cc3)CC2)c1 | – | – | IC50 [22]: 5.2 µM
15 | C/C(=N\NC(=O)c1cccc(S(=O)(=O)N2CCOCC2)c1)c1cc(Cl)ccc1Cl | 1700 nM | > 3 µM | Tm [4]: 43.3 °C; Tm [23]: 46.7 °C; Tm [8]: 40.8 °C; inhibition [24]: inactive; inhibition [19]: inactive
16 | C/C(=N/NC(=O)c1cnc(Cl)c(Br)c1)c1cc(Cl)ccc1O | 270 nM | > 3 µM | –
17 | C/C(=N\NC(=O)c1ccccc1)c1c(O)cccc1O | > 10000 nM | > 3 µM | –
